According to patent US20160376605A1, “WHEAT PLANTS HAVING INCREASED TOLERANCE TO IMIDAZOLINONE HERBICIDES” (BASF SE, priority 2003, published 2016):

Columns and labels:
Assay in all cases: Field Trials (2): tolerance scores at two rates of imazamox
Assay type in all cases: in vivo
[1] = tested on: Wild Type durum wheat cultivar; details: for % Chlorosis / % Height Reduction: Wild Type
Description: (§1) One hundred ten M3:4 lines derived from sixteen M2 plants were screened at 71 g/ha and 160 g/ha imazamox. The number of M4 lines per M2 plant varied from one to twenty. Tolerance of M3:4 lines was compared to untreated plots of the same line as well as to treated plots of a wild-type cultivar from which some of them were derived.
(§2) All tested lines survived at both rates of herbicide treatment, whereas all plants of the wild type were killed at both rates. Based on comparison to the wild type line, all lines tested expressed considerable tolerance to the applied rates, particularly when looking at height reduction relative to untreated plots. A rate of 35 g/ha imazamox is adequate to kill susceptible durum wheat.

[2] = tested on: Durum wheat M3:4 lines derived from M2 plant UT03; details: UT03, range across M3:4 lines
Description: as §1, §2

[3] = tested on: Durum wheat M3:4 lines derived from M2 plant UT05; details: UT05, range across M3:4 lines
Description: as §1, §2

[4] = tested on: Durum wheat M3:4 lines derived from M2 plant UT07; details: UT07, range across M3:4 lines
Description: as §1, §2

[5] = tested on: Durum wheat M3:4 lines derived from M2 plant UT01; details: UT01, range across M3:4 lines
Description: as §1, §2

[6] = tested on: Durum wheat M3:4 lines derived from M2 plant UT16; details: UT16, range across M3:4 lines
Description: as §1, §2

[7] = tested on: Durum wheat M3:4 lines derived from M2 plant UT10; details: UT10, range across M3:4 lines
Description: as §1, §2

[8] = tested on: Durum wheat M3:4 lines derived from M2 plant UT14; details: UT14, range across M3:4 lines
Description: as §1, §2

[9] = tested on: Durum wheat M3:4 lines derived from M2 plant UT20; details: UT20, range across M3:4 lines
Description: as §1, §2

[10] = tested on: Durum wheat M3:4 lines derived from M2 plant UT08; details: UT08, range across M3:4 lines
Description: as §1, §2

[11] = tested on: Durum wheat M3:4 lines derived from M2 plant UT12; details: UT12, range across M3:4 lines
Description: as §1, §2

[12] = tested on: Durum wheat M3:4 lines derived from M2 plant UT19; details: UT19, range across M3:4 lines
Description: as §1, §2

[13] = tested on: Durum wheat M3:4 lines derived from M2 plant UT13; details: UT13, range across M3:4 lines
Description: as §1, §2

COCc1cnc(C2=NC(C)(C(C)C)C(=O)N2)c(C(=O)O)c1 (centres unmarked) [imazamox]
% Chlorosis ([1]; imazamox 71 g/ha, 14 DAT): 90% | % Height Reduction ([1]; imazamox 71 g/ha, 14 DAT): 100% | % Chlorosis ([1]; imazamox 71 g/ha, 30 DAT): 100% | % Height Reduction ([1]; imazamox 71 g/ha, 30 DAT): 100% | % Chlorosis ([1]; imazamox 160 g/ha, 14 DAT): 90% | % Height Reduction ([1]; imazamox 160 g/ha, 14 DAT): 100% | % Chlorosis ([1]; imazamox 160 g/ha, 30 DAT): 100% | % Height Reduction ([1]; imazamox 160 g/ha, 30 DAT): 100% | survival of wild type plants ([1]; imazamox 71 g/ha and 160 g/ha (both rates), all plants of the wild type): killed | % Chlorosis ([2]; imazamox 71 g/ha, 14 DAT): 0% | % Height Reduction ([2]; imazamox 71 g/ha, 14 DAT): 10% | % Chlorosis ([2]; imazamox 71 g/ha, 30 DAT): 5% | % Height Reduction ([2]; imazamox 71 g/ha, 30 DAT): 5% | % Chlorosis ([2]; imazamox 160 g/ha, 14 DAT): 5% | % Height Reduction ([2]; imazamox 160 g/ha, 14 DAT): 10% | % Chlorosis ([2]; imazamox 160 g/ha, 30 DAT): 5% | % Height Reduction ([2]; imazamox 160 g/ha, 30 DAT): 5% | % Chlorosis ([3]; imazamox 71 g/ha, 14 DAT): 5-10% | % Height Reduction ([3]; imazamox 71 g/ha, 14 DAT): 5-10% | % Chlorosis ([3]; imazamox 71 g/ha, 30 DAT): 5-10% | % Height Reduction ([3]; imazamox 71 g/ha, 30 DAT): 5-10% | % Chlorosis ([3]; imazamox 160 g/ha, 14 DAT): 5-15% | % Height Reduction ([3]; imazamox 160 g/ha, 14 DAT): 10-30% | % Chlorosis ([3]; imazamox 160 g/ha, 30 DAT): 5-20% | % Height Reduction ([3]; imazamox 160 g/ha, 30 DAT): 5-20% | % Chlorosis ([4]; imazamox 71 g/ha, 14 DAT): 0-5% | % Height Reduction ([4]; imazamox 71 g/ha, 14 DAT): 0-10% | % Chlorosis ([4]; imazamox 71 g/ha, 30 DAT): 0-10% | % Height Reduction ([4]; imazamox 71 g/ha, 30 DAT): 0-5% | % Chlorosis ([4]; imazamox 160 g/ha, 14 DAT): 5-10% | % Height Reduction ([4]; imazamox 160 g/ha, 14 DAT): 0-10% | % Chlorosis ([4]; imazamox 160 g/ha, 30 DAT): 5-15% | % Height Reduction ([4]; imazamox 160 g/ha, 30 DAT): 0-10% | % Chlorosis ([5]; imazamox 71 g/ha, 14 DAT): 0-10% | % Height Reduction ([5]; imazamox 71 g/ha, 14 DAT): 0% | % Chlorosis ([5]; imazamox 71 g/ha, 30 DAT): 0% | % Height Reduction ([5]; imazamox 71 g/ha, 30 DAT): 0-10% | % Chlorosis ([5]; imazamox 160 g/ha, 14 DAT): 1-10% | % Height Reduction ([5]; imazamox 160 g/ha, 14 DAT): 0% | % Chlorosis ([5]; imazamox 160 g/ha, 30 DAT): 0-5% | % Height Reduction ([5]; imazamox 160 g/ha, 30 DAT): 0-20% | % Chlorosis ([6]; imazamox 71 g/ha, 14 DAT): 5-10% | % Height Reduction ([6]; imazamox 71 g/ha, 14 DAT): 0% | % Chlorosis ([6]; imazamox 71 g/ha, 30 DAT): 0% | % Height Reduction ([6]; imazamox 71 g/ha, 30 DAT): 0-10% | % Chlorosis ([6]; imazamox 160 g/ha, 14 DAT): 10-20% | % Height Reduction ([6]; imazamox 160 g/ha, 14 DAT): 0-10% | % Chlorosis ([6]; imazamox 160 g/ha, 30 DAT): 0-5% | % Height Reduction ([6]; imazamox 160 g/ha, 30 DAT): 0-10% | % Chlorosis ([7]; imazamox 71 g/ha, 14 DAT): 5-10% | % Height Reduction ([7]; imazamox 71 g/ha, 14 DAT): 0-10% | % Chlorosis ([7]; imazamox 71 g/ha, 30 DAT): 5% | % Height Reduction ([7]; imazamox 71 g/ha, 30 DAT): 0-5% | % Chlorosis ([7]; imazamox 160 g/ha, 14 DAT): 10% | % Height Reduction ([7]; imazamox 160 g/ha, 14 DAT): 0-20% | % Chlorosis ([7]; imazamox 160 g/ha, 30 DAT): 5% | % Height Reduction ([7]; imazamox 160 g/ha, 30 DAT): 0-10% | % Chlorosis ([8]; imazamox 71 g/ha, 14 DAT): 5-10% | % Height Reduction ([8]; imazamox 71 g/ha, 14 DAT): 0% | % Chlorosis ([8]; imazamox 71 g/ha, 30 DAT): 0% | % Height Reduction ([8]; imazamox 71 g/ha, 30 DAT): 0-10% | % Chlorosis ([8]; imazamox 160 g/ha, 14 DAT): 10% | % Height Reduction ([8]; imazamox 160 g/ha, 14 DAT): 0-10% | % Chlorosis ([8]; imazamox 160 g/ha, 30 DAT): 0% | % Height Reduction ([8]; imazamox 160 g/ha, 30 DAT): 0-10% | % Chlorosis ([9]; imazamox 71 g/ha, 14 DAT): 0-5% | % Height Reduction ([9]; imazamox 71 g/ha, 14 DAT): 0% | % Chlorosis ([9]; imazamox 71 g/ha, 30 DAT): 0% | % Height Reduction ([9]; imazamox 71 g/ha, 30 DAT): 5-10% | % Chlorosis ([9]; imazamox 160 g/ha, 14 DAT): 5-10% | % Height Reduction ([9]; imazamox 160 g/ha, 14 DAT): 0-20% | % Chlorosis ([9]; imazamox 160 g/ha, 30 DAT): 0% | % Height Reduction ([9]; imazamox 160 g/ha, 30 DAT): 10-15% | % Chlorosis ([10]; imazamox 71 g/ha, 14 DAT): 0-10% | % Height Reduction ([10]; imazamox 71 g/ha, 14 DAT): 0-10% | % Chlorosis ([10]; imazamox 71 g/ha, 30 DAT): 0-10% | % Height Reduction ([10]; imazamox 71 g/ha, 30 DAT): 0-10% | % Chlorosis ([10]; imazamox 160 g/ha, 14 DAT): 0-10% | % Height Reduction ([10]; imazamox 160 g/ha, 14 DAT): 0-10% | % Chlorosis ([10]; imazamox 160 g/ha, 30 DAT): 0-15% | % Chlorosis ([11]; imazamox 71 g/ha, 14 DAT): 0-10% | % Height Reduction ([11]; imazamox 71 g/ha, 14 DAT): 0-10% | % Chlorosis ([11]; imazamox 71 g/ha, 30 DAT): 0-5% | % Height Reduction ([11]; imazamox 71 g/ha, 30 DAT): 0-10% | % Chlorosis ([11]; imazamox 160 g/ha, 14 DAT): 10-15% | % Height Reduction ([11]; imazamox 160 g/ha, 14 DAT): 10-20% | % Chlorosis ([11]; imazamox 160 g/ha, 30 DAT): 5-10% | % Height Reduction ([11]; imazamox 160 g/ha, 30 DAT): 5-10% | % Chlorosis ([12]; imazamox 71 g/ha, 14 DAT): 30-40% | % Height Reduction ([12]; imazamox 71 g/ha, 14 DAT): 0-10% | % Chlorosis ([12]; imazamox 71 g/ha, 30 DAT): 0% | % Height Reduction ([12]; imazamox 71 g/ha, 30 DAT): 5-20% | % Chlorosis ([12]; imazamox 160 g/ha, 14 DAT): 40% | % Height Reduction ([12]; imazamox 160 g/ha, 14 DAT): 0-10% | % Chlorosis ([12]; imazamox 160 g/ha, 30 DAT): 0-5% | % Height Reduction ([12]; imazamox 160 g/ha, 30 DAT): 10-20% | % Chlorosis ([13]; imazamox 71 g/ha, 14 DAT): 5% | % Height Reduction ([13]; imazamox 71 g/ha, 14 DAT): 0-10% | % Chlorosis ([13]; imazamox 71 g/ha, 30 DAT): 5% | % Height Reduction ([13]; imazamox 71 g/ha, 30 DAT): 5% | % Chlorosis ([13]; imazamox 160 g/ha, 14 DAT): 5% | % Height Reduction ([13]; imazamox 160 g/ha, 14 DAT): 0-10% | % Chlorosis ([13]; imazamox 160 g/ha, 30 DAT): 5-10% | % Height Reduction ([13]; imazamox 160 g/ha, 30 DAT): 5%
